{"source": "patent US6541515B2", "about": "“HIV integrase inhibitors” (Merck & Co., Inc., priority 2000, dated 2003)", "target": "recombinant integrase (HIV integrase) (Human immunodeficiency virus type 1 group M subtype B, UniProt P04585)", "assay": "HIV integrase assay: strand transfer catalyzed by recombinant integrase", "assay_type": "biochemical", "conditions": "strand transfer activity", "method": "HIV Integrase Assay: Strand Transfer Catalyzed by Recombinant Integrase and Preintegration Complexes\nAssays for the strand transfer activity of integrase can be conducted according to Wolfe et al., J. Virol. 1996, 70: 1424 and Farnet and Bushman, Cell 1997, 88: 483 for recombinant integrase and preintegration complexes, respectively, hereby incorporated by reference. Compound A was tested in the recombinant integrase assay and found to have an IC50 of about 20 micromolar.", "data": [{"compound": "CCCCC(C)C1=C(O)C(=O)C2CC(C)CC(C(=O)O)C2C1(C)C(=O)CCO", "note": "(stereo not shown) [Compound A]", "values": [{"measurement": "IC50", "value": "~20", "unit": "µM"}]}]}
